Source: ChEMBL document CHEMBL1201862, “PubChem BioAssay data set” (2004)
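Growth conditions: 96-well plates. Treatment: test compound, 48 hours, 5 concentrations. Analysis: linear interpolation between bracketing concentrations; unreached endpoints set to highest concentration. The concentration for 50% growth inhibition is given as GI50.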 Active and inactive are the calls of the source. Rule as the data show it: active = GI50 up to about 1.1 µM and inactive = higher.

Experiments:
Assay in all cases: NCI tumour cell line growth inhibition, 48 h
[1] = tested on: SF-268
[2] = tested on: A498
[3] = tested on: HCC 2998
[4] = tested on: SK-MEL-5
[5] = tested on: CCRF-CEM
[6] = tested on: K562
[7] = tested on: HL-60
[8] = tested on: HT-29
[9] = tested on: CAKI-1
[10] = tested on: COLO 205
[11] = tested on: U-251
[12] = tested on: EKVX
[13] = tested on: SW-620
[14] = tested on: 786-0
[15] = tested on: SF-295
[16] = tested on: OVCAR-5
[17] = tested on: MOLT-4
[18] = tested on: OVCAR-8
[19] = tested on: DU-145
[20] = tested on: MCF7

Measured: GI50

O=C1C(Br)=C[C@H]2C3C=CC(Br)(C3=O)[C@@H]12 (stereo partly specified)
inactive: [1] 12.9 µM | [2] 19 µM | [3] 13.3 µM | [4] 14 µM | [5] 2.59 µM | [6] 7.62 µM | [7] 2.43 µM | [8] 10.5 µM | [9] 9.25 µM | [10] 9.75 µM | [11] 13.8 µM | [12] 15.4 µM | [13] 9.18 µM | [14] 14.7 µM | [15] 18 µM | [16] 15.6 µM | [17] 2.3 µM | [18] 12.5 µM

O=C(Cc1ccccc1)NN1C(=O)C(Cl)C1c1ccccc1Cl (stereo unspecified)
inactive: [1] > 70.1 µM | [2] > 100 µM | [3] > 100 µM | [4] > 72.6 µM | [5] 14.1 µM | [6] 33.7 µM | [7] 30.1 µM | [8] > 94.2 µM | [9] > 60.3 µM | [10] > 100 µM | [11] 44.1 µM | [12] > 100 µM | [13] 34.4 µM | [14] 71.8 µM | [15] 99.8 µM | [16] > 100 µM | [17] 26.2 µM | [18] > 74 µM

CCOc1ccc(NC(=O)C2=C(C)NC(C)=C(C(=O)Nc3ccc(OCC)cc3)C2c2ccccc2)cc1
inactive: [1] 98.6 µM | [2] > 100 µM | [3] > 100 µM | [4] 74.3 µM | [5] 31.3 µM | [6] 38.5 µM | [7] 29.9 µM | [8] > 100 µM | [9] > 100 µM | [10] > 100 µM | [11] > 100 µM | [12] > 100 µM | [13] > 100 µM | [14] 88.7 µM | [15] > 100 µM | [16] > 100 µM | [17] 44.8 µM | [18] > 100 µM

COc1cccc(NC(=O)C(=O)C(C(C)=O)c2nc3ccc(Cl)cc3nc2O)c1 (stereo unspecified)
inactive: [1] > 100 µM | [2] > 100 µM | [3] > 100 µM | [4] > 100 µM | [5] > 100 µM | [6] > 100 µM | [7] > 100 µM | [8] > 100 µM | [9] > 100 µM | [10] > 100 µM | [11] > 100 µM | [12] > 100 µM | [13] > 100 µM | [14] > 100 µM | [15] > 100 µM | [16] > 100 µM | [17] > 100 µM | [18] > 100 µM

O=C(CC(CC(=O)Oc1c(Br)cc(Br)cc1C(=O)O)C(=O)Oc1c(Br)cc(Br)cc1C(=O)O)Oc1c(Br)cc(Br)cc1C(=O)O
inactive: [1] 6.12 µM | [2] 81.5 µM | [3] 42.3 µM | [4] > 100 µM | [5] 41.6 µM | [6] 41.4 µM | [7] 43.7 µM | [8] 49.2 µM | [9] 72.6 µM | [10] > 100 µM | [11] 46.6 µM | [12] 44.9 µM | [13] 69.5 µM | [14] > 100 µM | [15] 71.3 µM | [16] 45.1 µM | [17] 46.5 µM | [18] 19.3 µM

O=C(/N=c1/[nH]/c(=N/C(=O)c2ccccc2)ss1)c1ccccc1
inactive: [1] 25.8 µM | [2] 23.4 µM | [3] 18 µM | [4] 5.11 µM | [5] 16 µM | [6] 20.4 µM | [7] 14.7 µM | [8] 16.6 µM | [9] 30.3 µM | [10] 22.9 µM | [11] 7.55 µM | [12] 25.4 µM | [13] 25.5 µM | [14] 25.5 µM | [15] 18 µM | [16] 31.7 µM | [17] 24.7 µM | [18] 27.3 µM

CCCc1c(C(=O)OCC)[nH]c(C(=O)CCC(=O)c2[nH]c(C(=O)OCC)c(CCC)c2C(=O)OCC)c1C(=O)OCC
inactive: [1] > 100 µM | [2] > 100 µM | [3] > 100 µM | [4] > 100 µM | [5] > 100 µM | [6] > 100 µM | [7] > 100 µM | [8] > 100 µM | [9] > 100 µM | [10] > 100 µM | [11] > 100 µM | [12] > 100 µM | [13] > 100 µM | [14] 54.6 µM | [15] > 100 µM | [16] > 100 µM | [17] > 100 µM | [18] > 100 µM

CCOC(=O)C1=NC(c2ccccc2)(c2ccccc2)OC1=C(Cl)Cl
inactive: [1] > 100 µM | [2] > 100 µM | [3] 18.5 µM | [4] 39.5 µM | [5] 33.6 µM | [6] 32 µM | [7] 11.9 µM | [8] 32.4 µM | [9] > 100 µM | [10] > 100 µM | [11] 74.6 µM | [12] 35.5 µM | [13] 82.4 µM | [14] > 100 µM | [15] > 100 µM | [16] 96.2 µM | [17] 36 µM | [18] > 100 µM

O=C1CCC(=O)c2sccc2N1
inactive: [1] > 100 µM | [2] > 100 µM | [3] > 100 µM | [4] > 100 µM | [5] > 100 µM | [6] > 100 µM | [7] > 100 µM | [8] > 100 µM | [9] > 100 µM | [10] > 100 µM | [11] > 100 µM | [12] > 100 µM | [13] > 100 µM | [14] > 100 µM | [15] > 100 µM | [16] > 100 µM | [17] > 100 µM | [18] > 100 µM

COc1ccc(/C=C2\OC(=O)C(Cl)=C2c2ccc(OC)cc2)cc1
inactive: [1] 40.4 µM | [2] > 100 µM | [4] > 100 µM | [5] > 100 µM | [6] > 100 µM | [7] > 100 µM | [8] > 100 µM | [9] > 100 µM | [19] > 100 µM | [10] > 100 µM | [11] 89.3 µM | [12] > 100 µM | [13] > 100 µM | [14] 45.6 µM | [15] > 100 µM | [17] > 100 µM | [18] 85.7 µM

Nc1ncnc2c1nnn2C1C=C(CO)C(O)C1O (stereo unspecified)
inactive: [1] 42.7 µM | [2] > 100 µM | [3] 22.5 µM | [4] > 100 µM | [5] 50.7 µM | [6] 40.8 µM | [7] 12.1 µM | [8] 35.3 µM | [9] 74 µM | [10] > 36 µM | [11] > 100 µM | [12] > 100 µM | [13] 29.4 µM | [14] 53.2 µM | [15] > 100 µM | [16] 48.3 µM | [17] > 100 µM | [18] 39.4 µM

CN1C(=O)C2C(=O)N(Cc3ccccc3)CC(=O)N2c2cccnc21 (stereo unspecified)
inactive: [1] > 100 µM | [2] > 100 µM | [4] > 100 µM | [5] > 100 µM | [6] > 100 µM | [7] > 100 µM | [8] > 100 µM | [9] > 100 µM | [20] > 100 µM | [10] > 100 µM | [11] > 100 µM | [12] > 100 µM | [14] > 100 µM | [15] > 100 µM | [16] > 100 µM | [17] > 100 µM | [18] > 100 µM

Cc1cc(NCCCCCCNc2cc(C)nc3ccc(Cl)cc23)c2cc(Cl)ccc2n1
inactive: [1] 14.7 µM | [2] > 100 µM | [3] 16.4 µM | [4] 18.3 µM | [5] 3.63 µM | [6] 2.49 µM | [7] 7.4 µM | [8] 15.2 µM | [9] 33 µM | [10] 18.3 µM | [11] 16.9 µM | [12] 15.8 µM | [14] 17.4 µM | [15] 16.6 µM | [16] 19.7 µM | [17] 27.7 µM | [18] 18.5 µM

CN(C)c1ccc(-c2nc(N)nc3c2CCCC3)cc1
inactive: [1] 47.2 µM | [2] 35.6 µM | [3] 80 µM | [4] 34.7 µM | [5] 50.5 µM | [6] 29.3 µM | [7] 29.3 µM | [9] 52.1 µM | [10] 42.5 µM | [11] 53.7 µM | [12] 28.4 µM | [13] > 100 µM | [14] 82 µM | [15] 38.5 µM | [16] > 100 µM | [17] 30.2 µM | [18] 74.5 µM

CC1(C)CCC[C@@]2(C)C1CCC1(C)C(CCc3ccoc3)/C(=C/OS(=O)(=O)O)CCC12 (stereo partly specified)
inactive: [1] > 100 µM | [2] > 100 µM | [3] > 100 µM | [4] > 100 µM | [5] 25.4 µM | [6] 31.2 µM | [7] 37.1 µM | [8] 40.9 µM | [9] > 100 µM | [10] 54.6 µM | [11] 57.5 µM | [12] > 100 µM | [13] 54.3 µM | [14] > 100 µM | [15] 49.9 µM | [16] > 100 µM | [17] 23.6 µM | [18] > 100 µM
